Results taken from US20040166079A1, “N-Lauroyl amino acid composition for slimming the human body” (priority 2003, published 2004).

Columns and labels:
Assay type in all cases: biochemical
human recombinant MMP-9 = target: T1, human recombinant MMP-9 (Homo sapiens, UniProt P14780); test: Measurement of the activity of metalloproteinase MMP-9 (DQ-gelatin fluorescence); settings: incubation concentration 0.1 % DE; relative to the control
T1 construct: purchased CALBIOCHEM PF024
Protocol: (§1) The objective of this test is to evaluate the inhibitory capacity of a product on the enzymatic activity of MMP-2 and MMP-9. This test is based on an enzymatic reaction between purified MMP-2 or MMP-9 and a specific substrate containing a chromophore. The degradation of the chromogenic substrate by the enzyme leads to the production of fluorescence monitored by fluorimetry.
(§2) (i)—A human recombinant MMP-9 (CALBIOCHEM, PF024) is incubated, at 0.05 μg/ml, in the presence of the product and the chromogenic substrate, DQ-gelatin conjugated with fluorescein (MOLECULAR PROBE, D12054) at 10 μg/ml. The reaction mixture is incubated overnight at room temperature, protected from light. The quantity of DQ-gelatin degraded is measured by fluorescence (Ex: 355 nm; Em: 460 nm).
(§3) The reactivity of the enzymatic system is systematically monitored for the measurement of the effect of a metalloproteinase inhibitor, 1,10-phenanthroline. The results are presented in the following table, as a percentage inhibition of the enzymatic activity of MMP-2 and MMP-9 relative to the control.

human pancreatic lipase = target: T2, human pancreatic lipase (Homo sapiens, UniProt P16233); test: Measurement of the activity of lipase (LIPASE-PS kit, absorbance 550 nm); settings: relative to the control, 8 minutes at 37° C.
T2 construct: purchased SIGMA LIPASE-PS kit
T2 sequence (P16233 17-465): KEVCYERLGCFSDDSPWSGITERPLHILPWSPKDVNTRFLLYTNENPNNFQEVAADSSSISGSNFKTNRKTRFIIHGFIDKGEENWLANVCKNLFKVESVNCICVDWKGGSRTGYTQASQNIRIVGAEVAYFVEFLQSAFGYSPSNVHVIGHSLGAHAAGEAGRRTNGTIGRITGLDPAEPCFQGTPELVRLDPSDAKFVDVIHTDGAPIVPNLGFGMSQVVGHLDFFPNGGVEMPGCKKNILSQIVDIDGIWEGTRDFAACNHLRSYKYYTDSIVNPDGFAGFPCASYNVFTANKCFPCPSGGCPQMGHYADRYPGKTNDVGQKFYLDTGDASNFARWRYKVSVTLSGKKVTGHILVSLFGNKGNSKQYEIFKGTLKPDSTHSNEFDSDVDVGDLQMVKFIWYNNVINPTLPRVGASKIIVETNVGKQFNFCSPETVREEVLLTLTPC
T2 sequence (P02703 23-112 partner): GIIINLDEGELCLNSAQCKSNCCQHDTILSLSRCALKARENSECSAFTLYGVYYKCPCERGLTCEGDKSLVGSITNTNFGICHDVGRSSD
Protocol: Lipase is an enzyme which degrades triglycerides to fatty acids and glycerol according to the following reaction scheme: [drawing 5]
Inside the adipocytes, the free fatty acids can thus be removed from storage. […] It is based on an enzymatic test, using a purified enzyme.
A human pancreatic lipase (SIGMA, LIPASE-PS™ kit) is incubated in the presence of a diglyceride and a reaction system to produce a coloured quinone diimine which can be assayed by spectrophotometry (550 nm). The measurement of the absorbance at 550 nm is directly proportional to the activity of the lipase.
All the […] are provided in the LIPASE-PS™ kit (SIGMA) . The product is incubated with the reaction mixture for 8 minutes at 37° C.
The reaction system used is composed of:
The results are presented in the following table as a percentage activation of the lipase relative to the control.

human recombinant MMP-2 = target: T3, human recombinant MMP-2 (Homo sapiens, UniProt P08253); test: Measurement of the activity of metalloproteinase MMP-2 (DQ-gelatin fluorescence); settings: incubation concentration 0.1 % DE; relative to the control
T3 construct: purchased CALBIOCHEM PF023
T3 sequence (P08253 110-660): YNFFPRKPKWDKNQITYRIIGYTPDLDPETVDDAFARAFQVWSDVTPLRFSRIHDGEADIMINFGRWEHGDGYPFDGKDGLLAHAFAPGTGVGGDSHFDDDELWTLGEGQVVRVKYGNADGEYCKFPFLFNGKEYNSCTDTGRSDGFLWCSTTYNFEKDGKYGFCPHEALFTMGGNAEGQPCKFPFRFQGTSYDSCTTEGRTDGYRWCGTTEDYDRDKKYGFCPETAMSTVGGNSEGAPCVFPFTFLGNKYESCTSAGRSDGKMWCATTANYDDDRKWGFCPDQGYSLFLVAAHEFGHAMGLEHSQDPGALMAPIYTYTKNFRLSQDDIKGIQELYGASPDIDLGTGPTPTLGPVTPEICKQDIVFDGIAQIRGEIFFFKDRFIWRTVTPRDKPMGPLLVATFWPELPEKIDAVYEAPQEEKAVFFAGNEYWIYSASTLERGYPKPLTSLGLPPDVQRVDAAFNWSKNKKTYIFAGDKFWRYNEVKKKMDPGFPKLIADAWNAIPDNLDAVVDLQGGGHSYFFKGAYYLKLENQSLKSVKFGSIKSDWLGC
Protocol: as §1
as §2, with “(ii)—A” for “(i)—A”, “MMP-2” for “MMP-9”, “PF023)” for “PF024)”, “0.1” for “0.05”
as §3

T1 sequence (P14780 107-707 limits assumed): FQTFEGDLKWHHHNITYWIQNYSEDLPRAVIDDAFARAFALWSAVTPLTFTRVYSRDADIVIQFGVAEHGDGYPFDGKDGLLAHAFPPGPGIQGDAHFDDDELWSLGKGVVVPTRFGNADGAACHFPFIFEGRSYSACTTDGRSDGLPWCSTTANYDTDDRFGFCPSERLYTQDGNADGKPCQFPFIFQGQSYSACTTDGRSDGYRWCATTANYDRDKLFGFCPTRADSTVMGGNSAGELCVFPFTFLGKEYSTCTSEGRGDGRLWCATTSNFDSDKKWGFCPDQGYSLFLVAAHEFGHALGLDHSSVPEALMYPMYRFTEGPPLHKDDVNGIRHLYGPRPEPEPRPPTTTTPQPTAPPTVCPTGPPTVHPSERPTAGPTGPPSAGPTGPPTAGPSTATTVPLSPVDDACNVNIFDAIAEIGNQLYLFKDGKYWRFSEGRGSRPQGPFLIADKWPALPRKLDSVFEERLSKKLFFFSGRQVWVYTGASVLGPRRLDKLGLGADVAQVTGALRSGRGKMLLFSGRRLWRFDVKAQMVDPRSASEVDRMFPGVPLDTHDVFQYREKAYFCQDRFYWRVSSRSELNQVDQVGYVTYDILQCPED

Cn1c(=O)c2c(ncn2C)n(C)c1=O [Caffeine, 1,3,7-trimethyl-xanthine]
MMP-9 inhibiting effect (human recombinant MMP-9): 0% | Percentage activation of the lipase (human pancreatic lipase; incubation concentration 0.01 % DE): 0% | Percentage activation of the lipase (human pancreatic lipase; incubation concentration 0.1 % DE): 10% | MMP-2 inhibiting effect (human recombinant MMP-2): 0%
